Test results: patent US12611406B2, “Oxopiperazine derivatives for the treatment of cancer” (Inthera Bioscience AG, priority 2020, dated 2026)

Tests used:
Format in all cases: in vivo
[1] = 14-day daily oral repeated-dose exploratory study in CD-1 mice (mesylate salt); details: for AUC(0-t) / Cmax: CD-1, mouse, in vivo, po
Description: This study explored the TK profile of Compound 1 after 14 days once daily oral dosing in male and female CD-1 mice.
Compound 1 (mesylate salt) was administered once daily for 14 consecutive days by oral gavage to groups of CD-1 mice (n=8/sex/group) at dose levels of 0 (control), 1, 5, 10 or 15 mg/kg/day. A suspension of 0.5% Methylcellulose (w/v) and 0.1% Polysorbate 80 (Tween 80) (v/v) was used as vehicle. For TK investigations sparse blood sampling was performed on treatment Days 1 and 14; three blood samples per animal and day were collected either pre-dose, 2 and 8 hours after administration (4 male and female animals per group) or 1, 4, and 24 hours (remaining 4 male and 4 female animals per group) after administration.

[2] = 5-day daily oral repeated-dose pilot study in cynomolgus monkeys (mesylate salt); details: for Tmax: all groups
Description: The objective of the study was to determine the TK profile of Compound 1 following its daily administration through oral gavage (po) for 5 days to cynomolgus monkeys.
Naïve male and female cynomolgus monkeys (2 animals/sex/group) were orally administered Compound 1 (mesylate salt) at dose levels of 8, 12 or 16 mg/kg/day for 5 consecutive days. The vehicle was 0.5% (w/v) methyl cellulose 400 in sterile water. For TK evaluation blood samples were collected from each animal on Days 1 and 5 at pre-dose, 15 min, 30 min, as well as 1, 2, 4, 6, 8, 12, and 24 hours post-dose.

[3] = 14-day daily oral repeated-dose DRF study in Beagle dogs (citrate salt); details: for Cmax / Tmax / half-life: both sexes, Beagle, dog, plasma, po
Description: The objective of this dose-range-finding study was to select the dose levels for a potential subsequent toxicity study of Compound 1 by oral administration to Beagle dogs.
Compound 1 (citrate salt) administration in this study was intended once daily for up to 14 consecutive days by oral gavage to groups of naïve Beagle dogs (n=1/sex/group) at dose levels of 0.1, 0.3, 1, 3, 6, or 12 mg Compound 1 per kg bodyweight and day in 0.5% methylcellulose by using a staggered approach. The actual dose levels and durations of dosing were flexibly adapted according to PK and signs of tolerability. For TK evaluation blood samples were collected from each dog on Days 1 and 14 at pre-dose, 1, 2, 4, 8, 12, and 24 hours post-dose.

In the case of CC(C)C[C@@H]1NCCN([C@@H](CC(C)C)C(=O)N2CCC3(C[C@@H]2C)OCC(CN2CCCC2)CO3)C1=O (stereo partly drawn) [Compound 1, (S)-3-isobutyl-1-((S)-4-methyl-1-((S)-8-methyl-3-(pyrrolidin-1-ylmethyl)-1,5-dioxa-9-azaspiro[5.5]undecan-9-yl)-1-oxopentan-2-yl)piperazin-2-one], the tolerability ([1]; 1, 5, 10, and 15 mg/kg/day orally once daily for 14 consecutive days) is reported as “well-tolerated”, the AUC(0-t) ([1]; female, 1 mg/kg, F, Day 1) is reported as 0.0331 µg·h/mL and the Cmax ([1]; female, 1 mg/kg, F, Day 1) is reported as 0.0064 µg/mL. It also gave an AUC(0-t) ([1]; female, 1 mg/kg, F, Day 14) of 0.112 µg·h/mL, a Cmax ([1]; female, 1 mg/kg, F, Day 14) of 0.0166 µg/mL and an AUC(0-t) ([1]; female, 5 mg/kg, F, Day 1) of 0.258 µg·h/mL. For the same molecule, the Cmax ([1]; female, 5 mg/kg, F, Day 1) was 0.0676 µg/mL, the AUC(0-t) ([1]; female, 5 mg/kg, F, Day 14) was 0.478 µg·h/mL and the Cmax ([1]; female, 5 mg/kg, F, Day 14) was 0.115 µg/mL. For the same molecule, the AUC(0-t) ([1]; female, 10 mg/kg, F, Day 1) was 0.304 µg·h/mL, the Cmax ([1]; female, 10 mg/kg, F, Day 1) was 0.0605 µg/mL and the AUC(0-t) ([1]; female, 10 mg/kg, F, Day 14) was 0.69 µg·h/mL. The Cmax ([1]; female, 10 mg/kg, F, Day 14) was 0.0977 µg/mL, the AUC(0-t) ([1]; female, 15 mg/kg, F, Day 1) was 0.711 µg·h/mL and the Cmax ([1]; female, 15 mg/kg, F, Day 1) was 0.14 µg/mL. It also gave an AUC(0-t) ([1]; female, 15 mg/kg, F, Day 14) of 1.09 µg·h/mL, a Cmax ([1]; female, 15 mg/kg, F, Day 14) of 0.151 µg/mL and an AUC(0-t) ([1]; male, 1 mg/kg, M, Day 1) of 0.0554 µg·h/mL. For the same molecule, the Cmax ([1]; male, 1 mg/kg, M, Day 1) was 0.0109 µg/mL, the AUC(0-t) ([1]; male, 1 mg/kg, M, Day 14) was 0.108 µg·h/mL and the Cmax ([1]; male, 1 mg/kg, M, Day 14) was 0.0163 µg/mL. It also gave an AUC(0-t) ([1]; male, 5 mg/kg, M, Day 1) of 0.225 µg·h/mL, a Cmax ([1]; male, 5 mg/kg, M, Day 1) of 0.0429 µg/mL and an AUC(0-t) ([1]; male, 5 mg/kg, M, Day 14) of 0.607 µg·h/mL. The Cmax ([1]; male, 5 mg/kg, M, Day 14) was 0.09 µg/mL, the AUC(0-t) ([1]; male, 10 mg/kg, M, Day 1) was 0.361 µg·h/mL and the Cmax ([1]; male, 10 mg/kg, M, Day 1) was 0.0648 µg/mL. The AUC(0-t) ([1]; male, 10 mg/kg, M, Day 14) was 0.782 µg·h/mL, the Cmax ([1]; male, 10 mg/kg, M, Day 14) was 0.105 µg/mL and the AUC(0-t) ([1]; male, 15 mg/kg, M, Day 1) was 0.689 µg·h/mL. It also gave a Cmax ([1]; male, 15 mg/kg, M, Day 1) of 0.133 µg/mL, an AUC(0-t) ([1]; male, 15 mg/kg, M, Day 14) of 0.717 µg·h/mL and a Cmax ([1]; male, 15 mg/kg, M, Day 14) of 0.102 µg/mL. For the same molecule, the “Total AUC” value ([2]; 8 mg/kg/day, Day 1) was 0.085 µg·h/mL, the “Total AUC” value ([2]; 8 mg/kg/day, Day 5) was 0.175 µg·h/mL and the “Total AUC” value ([2]; 12 mg/kg/day, Day 1) was 0.106 µg·h/mL. The “Total AUC” value ([2]; 12 mg/kg/day, Day 5) was 0.329 µg·h/mL, the “Total AUC” value ([2]; 16 mg/kg/day, Day 1) was 0.351 µg·h/mL and the “Total AUC” value ([2]; 16 mg/kg/day, Day 5) was 0.561 µg·h/mL. For the same molecule, the Cmax ([2]; both sexes, cynomolgus monkey, serum, po, 8 mg/kg/day, Day 1, read-out: Peak serum levels (Cmax)) was 0.045 µg/mL, the Cmax ([2]; both sexes, cynomolgus monkey, serum, po, 8 mg/kg/day, Day 5, read-out: Cmax) was 0.064 µg/mL and the Cmax ([2]; both sexes, cynomolgus monkey, serum, po, 12 mg/kg/day, Day 1, read-out: Peak serum levels (Cmax)) was 0.042 µg/mL. The Cmax ([2]; both sexes, cynomolgus monkey, serum, po, 12 mg/kg/day, Day 5, read-out: Cmax) was 0.072 µg/mL, the Cmax ([2]; both sexes, cynomolgus monkey, serum, po, 16 mg/kg/day, Day 1, read-out: Peak serum levels (Cmax)) was 0.136 µg/mL and the Cmax ([2]; both sexes, cynomolgus monkey, serum, po, 16 mg/kg/day, Day 5, read-out: Cmax) was 0.112 µg/mL. For the same molecule, the Tmax ([2]; both sexes, cynomolgus monkey, serum, po, Day 1) was 0.5 to 0.9 h, the Tmax ([2]; both sexes, cynomolgus monkey, serum, po, Day 5) was 0.5 to 1.75 h and the half-life ([2]; both sexes, cynomolgus monkey, serum, po, all groups and time points, read-out: half-life (T1/2)) was 5 to 7 h. The tolerability ([2]; oral 8, 12, and 16 mg/kg/day for 5 consecutive days, slight body weight loss, changes in hematology, urinalysis, clinical chemistry) was “tolerated”, the “accumulation of drug exposure (Day 1 versus Day 14)” value ([3]; 0.1 mg/kg/day) was “no accumulation with time” and the “Total AUC(o-inf)” value ([3]; 0.1 mg/kg/day, Day 1) was 0.0056 µg·h/mL. For the same molecule, the “accumulation of drug exposure (Day 1 versus Day 14)” value ([3]; 0.3 mg/kg/day) was “slight increase over time”, the “Total AUC(o-inf)” value ([3]; 0.3 mg/kg/day, Day 1) was 0.0138 µg·h/mL and the “Total AUC(o-inf)” value ([3]; 1 mg/kg/day, Day 1) was 0.0638 µg·h/mL. For the same molecule, the “Total AUC(o-inf)” value ([3]; 3 mg/kg/day, Day 1) was 0.1716 µg·h/mL, the “Total AUC(o-inf)” value ([3]; 6 mg/kg/day, Day 1) was 0.7348 µg·h/mL and the “Total AUC(o-inf)” value ([3]; 12 mg/kg/day, Day 1) was 0.9364 µg·h/mL. The Cmax ([3]; 0.1 mg/kg/day, Day 1, read-out: mean Cmax plasma levels) was 0.0006 µg/mL, the Cmax ([3]; 0.1 mg/kg/day, Day 14, read-out: group mean Cmax plasma levels) was 0.0004 µg/mL and the Cmax ([3]; 0.3 mg/kg/day, Day 1, read-out: mean Cmax plasma levels) was 0.0023 µg/mL. The Cmax ([3]; 0.3 mg/kg/day, Day 14, read-out: group mean Cmax plasma levels) was 0.0038 µg/mL, the Cmax ([3]; 1 mg/kg/day, Day 1, read-out: mean Cmax plasma levels) was 0.0086 µg/mL and the Cmax ([3]; 3 mg/kg/day, Day 1, read-out: mean Cmax plasma levels) was 0.0238 µg/mL. The Cmax ([3]; 6 mg/kg/day, Day 1, read-out: mean Cmax plasma levels) was 0.114 µg/mL, the Cmax ([3]; 12 mg/kg/day, Day 1, read-out: mean Cmax plasma levels) was 0.182 µg/mL and the Tmax ([3]; 0.1 and 0.3 mg/kg/day, Day 14) was 1 h. It also gave a half-life ([3]; 0.1 and 0.3 mg/kg/day, Day 14, read-out: terminal elimination half-lives) of 4.7 to 5.5 h, a Tmax ([3]; all doses, Day 1) of 1 to 2 h and a half-life ([3]; all doses, Day 1, read-out: elimination half-life) of 3.4 to 6.2 h. The tolerability ([3]; daily oral 0.1 and 0.3 mg/kg/day for 14 days and 1 mg/kg/day for 6 days) was “well-tolerated” and the tolerability ([3]; daily oral 3, 6, and 12 mg/kg/day for 14 days) was “not well-tolerated”.
